Source: patent US20230407304A1, “USE OF MICRORNA INHIBITION TO PREVENT AND TREAT OSTEOARTHRITIS AND OTHER INFLAMMATORY DISEASES” (VIRGINIA COMMONWEALTH UNIVERSITY, priority 2020, published 2023)
Values joined by “and” are separate entries in the source; they are usually repeats but may differ in a detail not shown here. Equal entries are not always repeated.

How the values were obtained:
[1] = tested on: unilateral ACLT model of OA in Sprague Dawley rats; test: Mild model of OA: unilateral ACLT, weekly intra-articular 24R,25 injections; format: in vivo, rat
Experimental: A total of 54 skeletally mature male Sprague-Dawley rats (Envigo, Indianapolis, IN), 9-10 weeks of age, weighing 250-300 g at the study onset, were used for these experiments. All animal procedures were performed according to the National Research Council's Guide for the Care and Use of Laboratory Animals guidelines and approved by Virginia Commonwealth University's Institutional Animal Care and Use Committee. All rats were given ad libitum access to standard pellet and water. Based on a previous study (Scott, supra) using a 30% effect size, 20% variance, and a power of 80%, a two-tail analysis indicated an n=8 per group was necessary to yield statistical significance.
The unilateral ACLT study initially included 45 rats. Each treatment group had n=8 plus 1 extra animal in case of morbidity or mortality. Three rats died resulting in a total of 42 rats in the study. Rats were sedated with 2-4% isoflurane anesthesia in 400 mL/min 02 to effect. Unilateral anterior cruciate ligament transections (ACLT, animals=45) were performed by medially translocating the patellar tendon in order to visualize and transect the ACL to create a […] model of OA. Left legs served at contralateral controls (c-control) while right legs received either […] of vehicle injections or 4×10^−7 M 24R,25(OH)2D3 (24R,2S) injections once a week. Eighteen rats were used to examine a 5-week prophylactic treatment duration while another eighteen rats were used to examine a 10-week prophylactic treatment duration. […] However, 3 animals died in this study resulting in an n=8 for the ACLT rats, for the 5-week vehicle (5W-Veh) treated rats, and the 10-week 24R,25 (10W-24R,25) treated rats. Animals were killed after 70 days. Hind-limbs were collected and micro-CT and histological analyses were performed. […]
The articular cartilage area, fibrotic area, and percent healthy subchondral bone were measured using Zen 2012 Blue Edition software. For the unilateral ACLT study: the articular cartilage area was measured on 2-3 slides per sample and the average area for each sample was reported for medial tibias. […]

[2] = tested on: unilateral ACLT model of OA; settings: four weeks following ACLT surgery, previous work (Boyan et al.); cited from earlier work
[3] = tested on: bilateral ACLT model of OA in Sprague Dawley rats; test: Severe model of OA: bilateral ACLT, weekly intra-articular 24R,25 injections; format: in vivo, rat; settings: 10 weeks
Experimental: The second study created a more severe model of OA by performing bilateral ACLTs, using the experimental design shown in FIG. 2B. Treatment groups had n=8 plus 1 extra animal in case of morbidity or mortality. Nine animals were sedated using 2-4% isoflurane anesthesia in 400 mL/min O2 to effect. Bilateral anterior cruciate ligament transections were performed by medially translocating the patellar tendon in order to visualize and transect the ACL. Left legs received vehicle injections and right legs received 24R,25 injections once weekly using the same injection regimen outlined for the previous study. Animals were killed 70 days post-ACLT, and serum and hind-limbs were collected.
24R,25(OH)2D3 was obtained from Enzo Life Sciences (Plymouth Meeting, PA) and dissolved in ethanol at a stock concentration of 10^−4 M in accordance with a previously established protocol (see Boyan et al. PLoS One. 2016; 11(8):e0161782). 40 μL of stock 24R,25 was dissolved in 10 mL sterile 1×PBS to create a final treatment concentration of 4×10^−7 M 24R,25. All animals received injections of 25 μL of 4×10^−7 M 24R,25 in right legs or vehicle (40 μL ethanol dissolved in sterile 1×PBS to a final concentration of 0.4%) in left legs once a week for 70 days based on a previously established protocol (see Boyan et al., supra).
Samples were decalcified for 7 days using Decal™ (StatLab Medical Products, Mckinney, TX), rinsed in running DI water for 15 mins, dehydrated in a series of 70-100% ethanol and xylene washes, and embedded with Richard-Allan Scientific Histoplast Paraffin (VWR, Radnor, PA). 5 μm sections were cut every 100-200 μm throughout the joint using a manual microtome (Shandon Finesse 325, Thermo Scientific) and stained using hematoxylin and eosin (H&E), toluidine blue, or Masson's trichrome. Samples were imaged using Zen 2012 Blue Edition software with an AxioCam MRc5 camera and Axio Observer Z.1 microscope (Carl Zeiss Microscopy, Oberkochen, Germany).
The articular cartilage area, fibrotic area, and percent healthy subchondral bone were measured using Zen 2012 Blue Edition software. For the unilateral ACLT study: the articular cartilage area was measured on 2-3 slides per sample and the average area for each sample was reported for medial tibias. […] For the bilateral ACLT study, articular cartilage area, fibrotic area, and the percent healthy subchondral bone were measured on one slide per sample for medial femurs. The subchondral bone plate was measured and subdivided into healthy regions (normal cartilage above) and unhealthy regions (subchondral bone remodeling and osteophyte formation, cartilage erosion/delamination). The percent healthy subchondral bone was reported as healthy subchondral bone divided by total subchondral bone*100.
Two blinded reviewers scored histological samples and assigned a grade (0-6.5) to assess OA depth progression into the cartilage and a stage (0-4) to assess the horizontal extent of cartilage involvement along the articulating surface according to the OARSI scoring system guidelines (see Pritzker et al. Osteoarthritis Cartilage. 2006 January; 14(1):13-29). The grade and stage were multiplied together to obtain the OARSI score. The higher the score, the more severe OA present, with a max possible score of 26. […]
Data are represented as mean±standard error. […] Blood serum of day 0 vs day 70 was analyzed used a two-tailed paired t-test using an alpha=0.05. […]

[4] = tested on: IL-1β stimulated increases in MMP-13, PGE2, and NO; settings: cited from earlier work
[5] = tested on: rat articular chondrocytes (rArCs); test: WNT/β-catenin agonist or antagonist treatment of rArCs with or without TNF-α; format: cell-based; settings: compound plus 10 ng/mL TNF-α
[6] = tested on: rat articular chondrocytes (rArCs); test: WNT/β-catenin agonist or antagonist treatment of rArCs with or without IL-1β; format: cell-based; settings: compound alone (LiCl 5 mM and 10 mM; XAV 0.5, 1 μM)
[7] = tested on: destabilization of the medial meniscus model of OA; settings: destabilization of the medial meniscus model of OA in mice; literature; cited from earlier work
[8] = 10W 24R,25 vs 10W-Veh vs ACLT alone
[9] = bilateral ACLT, 24R,25 vs vehicle limbs

Row | Compound | cartilage area by histomorphometric analysis, medial tibias [1, 8] | micro-CT cartilage volume, medial and lateral tibia [1, 8] | mean OARSI score, medial tibias ([1]; unilateral ACLT, 4×10^−7 M 24R,25 once a week for 10 weeks, day 70, max possible score 26) | OA progression [2] | OARSI score (average) ([3]; bilateral ACLT, 24R,25 once weekly, day 70) | articular cartilage area, medial femurs (histomorphometric analysis) ([3]; bilateral ACLT, 24R,25 right legs vs vehicle left legs, once weekly) | fibrotic area, medial femurs [3, 9] | percent healthy subchondral bone, medial femurs [3, 9] | mitigation of OA progression / OA severity ([3]; severe (bilateral ACLT) model) | IL-1β stimulated increases in MMP-13, PGE2, and NO [4] | total DNA [5] | total DNA [6] | cartilage degradation [7]
1 | C=C1CC[C@H](O)C/C1=C/C=C1\CCC[C@]2(C)[C@@H]([C@H](C)CC[C@@H](O)C(C)(C)O)CC[C@@H]12 [24R,25, 24R,25-Dihydroxyvitamin D3] | no difference in cartilage area | no difference in cartilage volume between groups | 5.11 | mitigated OA progression | 16.61 and 15 | significantly less articular cartilage area compared to vehicle limbs | equivalent amount | equivalent amount | did not provide evidence of mitigation of OA progression | able to prevent | – | – | –
2 | Oc1nc(-c2ccc(C(F)(F)F)cc2)nc2c1CSCC2 [XAV, XAV-939] | – | – | – | – | – | – | – | – | – | – | decrease in total DNA | this was not seen | reduced cartilage degradation
